How the values were obtained:
[1] = test system: P388 i.p. mouse leukemia tumour; assay: P388 mouse leukemia model, survival;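 also: female B6D1F1 mice implanted i.p. with P388 leukemia cells, Kaplan-Meier survival analysis, ILS% equals treated minus vehicle control median survival, divided by control median, times 100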
Protocol: P388 mouse leukemia cells were injected intrapertoneally (IP) into B6D1F1 female mice. […] Kaplan-Meier survival distribution graphs are shown for each combination.
The percentage Increased Life Span (ILS%) was calculated as the median survival (treatment group) minus median survival (vehicle control) divided by median survival (vehicle control) multiplied with 100:

[2] = test system: HCT116 colon cancer xenograft; assay: HCT116 colon cancer subcutaneous xenograft model; type: in vivo, nu/nu mice
Protocol: The 5-FU dose was set at 15 mg/kg.
HCT116 colon cancer xenograph. Daily i.p. treatments with PXD101 (morning) and 5-FU (afternoon). Mean/SEM, n=10(9).

[3] = test system: EGFR protein in A431 cells; assay: Western blot of EGFR protein levels; type: cell-based, human; settings: 24 hours treatment
Text: The blot was reprobed with an anti-actin antibody to control for lane loading.

diverse tumor cell lines = assay: Proliferation of tumor cell lines; type: cell-based
HCC-4006 = assay: Growth inhibition/proliferation, PXD101 with Tarceva; type: cell-based; settings: mutant EGFR
Calu-3 = assay: Growth inhibition/proliferation, PXD101 with Tarceva (CellTiter-Glo); type: cell-based, human; settings: wtEGFR
[4] = 5-FU(30) mg/kg/treat i.p. daily for 5 days starting day 3
[5] = PXD101(60) mg/kg/treat i.p. daily for 5 days starting day 3
[6] = PXD101(100) mg/kg/treat i.p. daily for 5 days starting day 3

## O=c1[nH]cc(F)c(=O)[nH]1 [5-FU, 5-fluorouracil]
[1]; [4]
  ILS % (Increased Life Span): 60.0%
  Survival time, Max: 18
  Survival time, Median survival: 16
  Survival time, Min: 15
[1]; day 9, 5-FU (30)
  Cumulative Survival: 1
[1]; day 9, 5-FU (50)
  Cumulative Survival: 1.00
[1]; day 10, 5-FU (30)
  Cumulative Survival: 1
[1]; day 10, 5-FU (50)
  Cumulative Survival: 0.55
[1]; day 11, 5-FU (30)
  Cumulative Survival: 1
[1]; day 11, 5-FU (50)
  Cumulative Survival: 0.15
[1]; day 12, 5-FU (30)
  Cumulative Survival: 1
[1]; day 12, 5-FU (50)
  Cumulative Survival: 0.15
[1]; day 13, 5-FU (30)
  Cumulative Survival: 1
[1]; day 13, 5-FU (50)
  Cumulative Survival: 0.15
[1]; day 14, 5-FU (30)
  Cumulative Survival: 1
[1]; day 14, 5-FU (50)
  Cumulative Survival: 0.15
[1]; day 15, 5-FU (30)
  Cumulative Survival: 0.85
[1]; day 15, 5-FU (50)
  Cumulative Survival: 0.15
[1]; day 16, 5-FU (30)
  Cumulative Survival: 0.55
[1]; day 16, 5-FU (50)
  Cumulative Survival: 0.15
[1]; day 17, 5-FU (30)
  Cumulative Survival: 0.15
[1]; day 17, 5-FU (50)
  Cumulative Survival: 0.15
[1]; day 18, 5-FU (30)
  Cumulative Survival: 0
[1]; day 18, 5-FU (50)
  Cumulative Survival: 0.15
[1]; day 19, 5-FU (50)
  Cumulative Survival: 0.15
[1]; day 20, 5-FU (50)
  Cumulative Survival: 0.15
[1]; day 21, 5-FU (50)
  Cumulative Survival: 0.15
[1]; day 22, 5-FU (50)
  Cumulative Survival: 0.15
[1]; day 23, 5-FU (50)
  Cumulative Survival: 0.15
[1]; day 24, 5-FU (50)
  Cumulative Survival: 0
[2]; 5-FU 15 mg/kg
  tumour growth inhibition: ineffective

## Nc1nc(F)nc2c1ncn2[C@@H]1O[C@H](CO)[C@@H](O)[C@@H]1O [Fludarabin, Fludarabine]
[1]; day 8, Fludarabin (50)
  Cumulative Survival: 1.00
[1]; day 9, Fludarabin (50)
  Cumulative Survival: 0.85
[1]; day 10, Fludarabin (50)
  Cumulative Survival: 0.55
[1]; day 11, Fludarabin (50)
  Cumulative Survival: 0.40
[1]; day 12, Fludarabin (50)
  Cumulative Survival: 0.40
[1]; day 13, Fludarabin (50)
  Cumulative Survival: 0.40
[1]; day 14, Fludarabin (50)
  Cumulative Survival: 0.40
[1]; day 15, Fludarabin (50)
  Cumulative Survival: 0.30
[1]; day 16, Fludarabin (50)
  Cumulative Survival: 0.30
[1]; day 17, Fludarabin (50)
  Cumulative Survival: 0.15
[1]; day 18, Fludarabin (50)
  Cumulative Survival: 0.15
[1]; day 19, Fludarabin (50)
  Cumulative Survival: 0

## O=C1[O][Pt]2([NH][C@@H]3CCCC[C@H]3[NH]2)[O]C1=O [Oxali, Oxaliplatin]
[1]; day 9, Oxali (5)
  Cumulative Survival: 0.45
[1]; day 10, Oxali (5)
  Cumulative Survival: 0

## O=C(/C=C/c1cccc(S(=O)(=O)Nc2ccccc2)c1)NO [PXD-101]
[1]; [5]
  ILS % (Increased Life Span): 30.0%
  Survival time, Max: 14
  Survival time, Median survival: 13
  Survival time, Min: 12
[1]; [6]
  ILS % (Increased Life Span): 20.0%
  Survival time, Max: 14
  Survival time, Median survival: 12
  Survival time, Min: 11
[1]; day 9, PXD101 (60)
  Cumulative Survival: 1
[1]; day 9, PXD101 (100)
  Cumulative Survival: 1
[1]; day 10, PXD101 (60)
  Cumulative Survival: 1
[1]; day 10, PXD101 (100)
  Cumulative Survival: 1
[1]; day 11, PXD101 (60)
  Cumulative Survival: 1
[1]; day 11, PXD101 (100)
  Cumulative Survival: 0.85
[1]; day 12, PXD101 (60)
  Cumulative Survival: 0.70
[1]; day 12, PXD101 (100)
  Cumulative Survival: 0.43
[1]; day 13, PXD101 (60)
  Cumulative Survival: 0.15
[1]; day 13, PXD101 (100)
  Cumulative Survival: 0.43
[1]; day 14, PXD101 (60)
  Cumulative Survival: 0
[1]; day 14, PXD101 (100)
  Cumulative Survival: 0.15
[1]; day 15, PXD101 (100)
  Cumulative Survival: 0
[3]
  level of EGFR protein: apparently decreases the level of EGFR protein
Diverse tumor cell lines
  IC50: 80 to 2430 nM
[2]; PXD-101 60 and 100 mg/kg q1d x5/week for 2 weeks
  tumour growth inhibition: significant tumour growth inhibition

## C#Cc1cccc(Nc2ncnc3cc(OCCOC)c(OCCOC)cc23)c1 [Tarceva ®]
HCC-4006
  responsiveness of cells to Tarceva: HCC-4006 (mutant EGFR; strongly responsive to Tarceva ®)
Calu-3
  responsiveness of cells to Tarceva: Calu-3 (wtEGFR; moderately responsive to Tarceva ®)

From patent US10285959B2, “Combination therapies using HDAC inhibitors” (priority 2005, dated 2019)
